The source of these data is patent US8735140B2, “Preservation and composition of bioprocess algae for production of lipids, seedstock, and feed” (Kuehnle AgroSystems, Inc., priority 2008, dated 2014).

For the test, the system named is algae strains KAS503, KAS633 and KAS635. Briefly: Sorbitol treatment prior to alginate embedding, cell recovery after preservation. It is filed as cell-based. The protocol: In one specific embodiment, cells are treated with trehalose solution at various concentrations and left overnight. Cells are centrifuged the next day to remove the trehalose solution, and then re-suspended in sterile 0.5M D-sorbitol (Fisher Scientific […]) dissolved in salt or fresh-water medium as required by specific algae species. Cells are left to stand for 2 hours with mild agitation. After 2 hours, cells are centrifuged again to remove the 0.5M sorbitol solution and re-suspended in fresh or salt-water medium. Cells are counted after the re-suspension. Cell viability is determined by comparing the cell growth in control set with the experimental set. Specifically, cell counts are performed on all samples. The averaged density value (in cells per ml) for all the cultures after treatment is defined as “rejuvenation cell count.” In some samples, the percent recovery of cells immediately after storage is also determined. The formulae are illustrated as follows: Growth=(rejuvenation cell count)/(initial cell count) Cell recovery after storage=(cell density after storage)/(initial cell density), with controls set at 100% cell recovery. Viability after storage and rejuvenation in nutrient medium=(Growth of treatment)/(Growth of control)×100%, with controls set at 100% viability

`OC[C@@H](O)[C@@H](O)[C@H](O)[C@@H](O)CO` [sorbitol, D-sorbitol]: the “Cell recovery after preservation” value was “increases cell recovery”.
